The results in this text go back to patent US8241681B2, “Synergistic mixtures of bisabolol and ginger extract” (Symrise AG, priority 2005, dated 2012).

Structures are written as SMILES.

This assay relates to erythema raised by 24-hour occlusive treatment with SDS (sodium dodecyl sulfate), inside under-arm skin. Description: SDS inflammation test (SDS irritation study), reduction in reddening of the skin. It counts as in vivo, human. As to conditions: after 3 days. On the procedure:
The SDS inflammation test was used as the test model. The study was conducted on the inside under-arm of 20 subjects (9 female, 11 male, age: 24-62 years). The reddening of the skin was recorded with a Minolta-Chromameter CR 300 via the a* value of the La′b′ colour system, which describes the position on the red-green axis. The measurements were taken before and 4-6 hours after raising the erythema by 24-hour occlusive treatment with SDS (sodium dodecyl sulfate). The skin was then treated with the test formulation in question 2 times daily for 3 days. 4-6 h after the last application on day 3, the reddening of the skin was determined and the reduction in reddening was calculated from this.
For the study, a defined amount of the active compound combination C according to the invention was incorporated into an O/W emulsion. For comparison purposes, the comparison active compounds A and B were incorporated into separate O/W emulsions.
Extrapon Ginger (Symrise) comprising 1% of ginger CO2 extract, characterized by 25-33% in total of piquant substances with gingerols, shogaols (<3%) and zingerone (<0.5%) and 38-46% of steam-volatile constituents was employed as comparison active compound A.
Calculation of the synergy index (SI) value according to Kull for the reduction in reddening in the SDS inflammation test for a mixture of bisabolol and ginger extract after a treatment time of 3 days: […]

Turning to `CC(C)=CCC[C@](C)(O)[C@@H]1CC=C(C)CC1` [Formulation with active compound B, -(-Alpha-)-Bisabolol, natural], for the setting “O/W emulsion applied 2 times daily, 20 subjects, Minolta-Chromameter CR 300, Example 11”, the “Reduction in reddening relative to the start conditions (a* value)” value is 2.42. In addition, under “reduction in reddening active compound minus reduction in reddening placebo, Example 11”, the “Placebo-corrected reduction in reddening (a* value)” value was determined as 1.02.
